Earlier results as cited in article PMC8491460 (Pharmacology Research & Perspectives, 2021).
Structures can show the parent of a compound that is named as a salt.

Legend:
[1] = test system: breast cancer models E0771 and 4T1; details: 8 mg/kg in drinking water; E0771 and 4T1, respectively
[2] = test system: patients with metastatic melanoma
[3] = test system: Colorectal cancer patients; details: 8.8 or 1.2 g per day oral, admission to 10th postoperative day
[4] = test system: patients with advanced RCC; details: IFNα 3–6 MIU s.c. thrice/week, 800 mg cimetidine, 10 mg meloxicam, 4 mg candesartan or perindopril
[5] = test system: human 1205Lu melanoma tumor; details: 1 mg/kg daily s.c. for 30 days
murine EL4 lymphomas = details: 75 mg/kg i.p. three times a week for 2 weeks
[6] = test system: CD11b^+Gr1^+ immature myeloid cells; details: 0.8 mg/kg i.p. per day for 20 days
[7] = test system: patients with high‐grade non‐Hodgkin lymphoma; details: 3 MIU IFNα, 1.5 mg/kg IL‐2, and 0.5 mg histamine s.c. 1–2 times daily, 5 days a week
[8] = test system: patients with metastatic RCC
BN‐175 tumors = details: 40 µg melphalan, 1 mg histamine, and 50 µg IL‐2 in 5 ml perfusate
[9] = clinical trials, adjuvant to IL‐2 immunotherapy
[10] = test system: patients with moderate to severe atopic dermatitis; details: 30 mg administered orally for 8 weeks
[11] = test system: uncontrolled, eosinophilic asthma; details: 30 mg per day for 24 weeks
[12] = test system: patients with moderate‐to‐severe psoriasis; details: 30 and 60 mg per day
rheumatoid arthritis [13] = details: 100 mg once daily orally for 12 weeks, phase IIa
rheumatoid arthritis [14] = details: phase IIb trial
[15] = histamine 75 µg/mouse i.p., 100–240 µg/mouse of each antibody
[16] = histamine 1500 µg/mouse with anti‐PD‐1/anti‐PD‐L1
[17] = histamine and anti‐PD‐1/anti‐PD‐L1

Molecule: CNC(=C[N+](=O)[O-])NCCSCc1ccc(CN(C)C)o1 [ranitidine]
- primary tumor growth and metastasis [1]: consistently reduced

Molecule: IL‐2: interleukin‐2 immunotherapeutic cytokine
- overall response rates [2]: 16%

Molecule: CN/C(=N/CCSCc1nc[nH]c1C)NC#N [cimetidine]
- CD19^+ B cells in blood samples [3]: elevated levels
- responses [4]: favorable responses

Molecule: NCCc1c[nH]cn1 [histamine, 2‐(4‐imidazolyl)‐ethylamine]
- neutrophil‐to‐lymphocyte ratio infiltrate [5]: decreased
- tumor growth and neovascular formation [5]: reduced
- tumor‐infiltrating DCs (murine EL4 lymphomas; WT mice): increased
- growth of murine EL4 lymphomas (murine EL4 lymphomas; WT mice but not NOX2‐deficient mice): reduced
- ability of immature myeloid cells to support the growth of tumor allografts [6]: suppressed
- differentiation of CD11b^+Gr1^+ immature myeloid cells ([6]; through H1 receptor and H2 receptor): induced their terminal differentiation into monocytes and neutrophils
- accumulation and immunosuppressive features of MDSCs (EL4 lymphoma; 75 µg/mouse i.p. three times a week): diminished
- tumor growth (EL4 lymphoma; 75 µg/mouse i.p. three times a week starting 1 day before tumor inoculation): diminished tumor growth
- expression of PD‐L1 on MDSCs or PD‐1 on CD8^+ T cells (EL4 lymphoma; EL4 tumor‐bearing mice, histamine): did not alter
- anti‐tumor efficacy of immune checkpoint blockade with anti‐PD‐1/anti‐PD‐L1 (EL4 lymphoma; [15]): improved
- fraction of CD8^+ T cells displaying an effector phenotype (EL4 lymphoma; [16]): slightly increased
- intra‐tumoral proportion of MDSCs, or T and NK cells (EL4 lymphoma; [16]): did not affect
- anti‐tumor efficacy of immune checkpoint blockade with anti‐PD‐1/anti‐PD‐L1 (MC‐38 colon carcinoma; [15]): improved
- MC‐38 tumor growth (MC‐38 colon carcinoma; histamine 1500 µg/mouse i.p. 3 times a week and anti‐PD‐1/anti‐PD‐L1): strongly reduced
- fraction of CD8^+ T cells with an effector phenotype (MC‐38 colon carcinoma; [17]): raised significantly
- fraction of intra‐tumoral CD8^+ T cells (MC‐38 colon carcinoma; [17]): tending to increase
- intra‐tumoral NK cells (MC‐38 colon carcinoma; [17]): decreased
- percentage of intra‐tumoral CD4^+ T cells (MC‐38 colon carcinoma; [17]): not altered
- frequency of cytokine‐producing T cells and NK‐cell‐mediated cytotoxicity [7]: significant increases
- tolerability ([8]; 1 mg HDC s.c. b.i.d. with IFNα 3 MIU and IL‐2 2.4 MIU/m^2): well tolerated
- TILs, blood leukocyte count, f‐chain expression, or cytotoxicity ([8]; similar treatment scheme): did not influence
- response (BN‐175 tumors): no improved response
- tolerability [9]: generally well tolerated

Molecule: CN[C@@H]1CCN(c2cc(NCC3CC3)nc(N)n2)C1 [adriforant]
- eczema and severity [10]: improved eczema and severity
- tolerability [10]: well tolerated

Molecule: CN(C)/N=N/c1[nH]cnc1C(N)=O [Dacarbazine]
- overall response rates [2]: 16%

Molecule: NCCc1c[nH]cn1 [HDC, histamine dihydrochloride]
- ROS production by M4/M5 cells and apoptosis in adjacent NK cells (NK cells): inhibited

Molecule: Cc1cc(C)c2nc(-c3cnc(NCCCC4CCN(C)CC4)nc3C)[nH]c2c1 [toreforant]
- improvement of uncontrolled, eosinophilic asthma [11]: failed to improve
- response versus placebo [12]: greater response than placebo
- signs and symptoms of rheumatoid arthritis (rheumatoid arthritis [13]): reduced
- confirmation of the reduction of signs and symptoms (rheumatoid arthritis [14]): could not be confirmed
